Measurements reported in US12441733B2, “Substituted 2,4-dioxotetrahydropyrimidines as intermediates in the synthesis of bruton's tyrosine kinase inhibitors” (Novartis AG, priority 2018, dated 2025).
Like-named read-outs stand apart in the source and are kept apart here.

Legend:
Type in all cases: cell-based
OCI-LY3 cells = test: Resazurin cell viability (proliferation) assay in OCI-LY3 DLBCL cells; details: OCI-LY3 cells (BTK independent), 72 h, 50% growth inhibition vs vehicle, read-out: OCI-LY3 Prol GI50
Procedure, shortened: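 Cells were seeded at 1×10^4 per well and dosed 3 h later: 8-point 1:4 dilutions from 10 μM (OCI-LY3), in triplicate, 72 h at 37 °C. Resazurin (13 μg/ml final) was added for the last 2 h and fluorescence read at 530/600 nm. GI50 is relative to DMSO vehicle, typically from ≥2 independent experiments.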

TMD8 cells = test: Resazurin cell viability (proliferation) assay in TMD8 DLBCL cells; details: TMD8 cells (BTK dependent), 72 h, 50% growth inhibition vs vehicle, read-out: TMD8 Prol GI50
Procedure, shortened: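 TMD8 cells were seeded at 1×10^4 per well and treated 3 h later with compound, in an 8-point 1:4 dilution series starting at 1 μM, or DMSO, for 72 h at 37° C. Resazurin was added at 13 μg/ml final for the last 2 h, and fluorescence was read at ex 530/em 600 nm. GI50 versus vehicle was derived by curve fitting from triplicates.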

BTK-GFP = molecular target: T1, BTK-GFP (Homo sapiens, UniProt Q06187+Q96SW2); test: BTK-GFP protein abundance flow cytometry assay in HEK293A cells; details: HEK293A BTK-GFP-iresRFP cells, 24 h; for DC50: GFP signal by flow cytometry, concentration at which 50% maximal degradation was observed; for BTK deg Amax: % protein remaining at the concentration at which maximum degradation is seen
T1 construct: expressed in transfected cells; host or cells: HEK293A (Invitrogen R70507), lentiviral transduction with pLenti6-BTK-GFP-Ires-RFP, blasticidin selection
Procedure, shortened: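 HEK293A cells stably expressing bicistronic BTK-GFP-IRES-RFP (C-terminal GFP tag) via lentiviral vector. Degradation read by flow cytometry as loss of GFP signal after degrader treatment. DC50 is concentration giving 50% maximal degradation; Amax is % protein remaining at maximal degradation.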

T1 sequence (Q06187 whole entry): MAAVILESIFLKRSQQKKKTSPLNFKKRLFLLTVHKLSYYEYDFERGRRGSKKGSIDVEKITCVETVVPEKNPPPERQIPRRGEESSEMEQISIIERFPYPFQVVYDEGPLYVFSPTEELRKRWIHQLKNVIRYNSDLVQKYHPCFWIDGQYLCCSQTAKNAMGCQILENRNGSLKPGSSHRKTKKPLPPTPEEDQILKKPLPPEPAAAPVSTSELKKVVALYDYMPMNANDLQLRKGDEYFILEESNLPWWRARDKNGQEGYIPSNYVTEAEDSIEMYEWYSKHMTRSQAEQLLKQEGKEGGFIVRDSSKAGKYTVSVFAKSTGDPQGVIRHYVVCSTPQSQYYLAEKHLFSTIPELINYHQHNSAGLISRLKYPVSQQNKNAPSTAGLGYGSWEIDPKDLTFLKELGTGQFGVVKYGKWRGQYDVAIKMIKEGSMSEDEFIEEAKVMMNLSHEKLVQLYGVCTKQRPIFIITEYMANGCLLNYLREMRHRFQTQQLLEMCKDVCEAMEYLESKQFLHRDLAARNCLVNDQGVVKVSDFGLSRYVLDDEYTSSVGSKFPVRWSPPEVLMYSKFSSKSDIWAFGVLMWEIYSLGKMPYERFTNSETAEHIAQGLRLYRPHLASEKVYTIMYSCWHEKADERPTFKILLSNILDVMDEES
T1 sequence (Q96SW2 whole entry): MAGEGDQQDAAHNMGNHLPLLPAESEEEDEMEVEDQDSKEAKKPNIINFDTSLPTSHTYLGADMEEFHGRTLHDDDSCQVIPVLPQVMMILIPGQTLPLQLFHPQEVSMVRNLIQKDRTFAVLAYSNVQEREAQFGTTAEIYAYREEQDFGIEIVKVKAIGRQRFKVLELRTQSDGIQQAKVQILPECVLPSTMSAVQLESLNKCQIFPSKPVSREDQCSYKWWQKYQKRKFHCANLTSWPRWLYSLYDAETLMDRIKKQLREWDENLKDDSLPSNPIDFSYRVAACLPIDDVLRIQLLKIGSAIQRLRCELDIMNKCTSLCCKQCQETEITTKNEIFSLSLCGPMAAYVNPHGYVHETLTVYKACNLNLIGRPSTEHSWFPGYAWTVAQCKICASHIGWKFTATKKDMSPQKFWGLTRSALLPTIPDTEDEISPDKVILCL
T1 sequence (Q16531 whole entry partner): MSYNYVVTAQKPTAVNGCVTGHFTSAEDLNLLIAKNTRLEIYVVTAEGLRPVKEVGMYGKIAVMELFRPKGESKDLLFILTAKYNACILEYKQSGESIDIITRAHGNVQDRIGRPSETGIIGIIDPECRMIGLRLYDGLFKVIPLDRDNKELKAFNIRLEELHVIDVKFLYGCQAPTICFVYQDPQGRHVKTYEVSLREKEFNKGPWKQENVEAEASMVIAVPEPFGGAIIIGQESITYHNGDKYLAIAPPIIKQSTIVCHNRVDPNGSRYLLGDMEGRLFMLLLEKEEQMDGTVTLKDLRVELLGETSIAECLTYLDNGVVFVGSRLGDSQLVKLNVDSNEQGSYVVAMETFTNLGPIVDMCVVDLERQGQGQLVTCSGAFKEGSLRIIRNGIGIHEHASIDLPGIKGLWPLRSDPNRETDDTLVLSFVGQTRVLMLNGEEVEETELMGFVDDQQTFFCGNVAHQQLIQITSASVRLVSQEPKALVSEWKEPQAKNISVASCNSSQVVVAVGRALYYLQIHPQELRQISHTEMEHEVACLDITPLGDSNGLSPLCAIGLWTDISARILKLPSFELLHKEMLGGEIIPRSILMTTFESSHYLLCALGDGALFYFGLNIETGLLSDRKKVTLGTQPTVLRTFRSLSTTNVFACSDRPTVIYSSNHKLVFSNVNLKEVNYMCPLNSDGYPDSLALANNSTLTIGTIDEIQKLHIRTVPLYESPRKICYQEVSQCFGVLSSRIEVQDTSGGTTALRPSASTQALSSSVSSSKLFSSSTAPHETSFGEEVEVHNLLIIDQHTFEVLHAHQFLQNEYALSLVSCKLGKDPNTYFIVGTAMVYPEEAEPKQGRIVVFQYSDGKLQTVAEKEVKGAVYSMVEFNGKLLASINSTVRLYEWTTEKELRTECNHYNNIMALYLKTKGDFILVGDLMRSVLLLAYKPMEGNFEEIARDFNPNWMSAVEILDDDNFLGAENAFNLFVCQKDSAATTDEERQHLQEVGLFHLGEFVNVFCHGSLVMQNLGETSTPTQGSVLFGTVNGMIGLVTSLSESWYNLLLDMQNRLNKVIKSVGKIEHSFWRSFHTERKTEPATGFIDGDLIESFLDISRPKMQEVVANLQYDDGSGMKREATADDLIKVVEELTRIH

SMILES | GI50 (OCI-LY3 cells; Homo sapiens) [nM] | DC50 (BTK-GFP) [nM] | BTK deg Amax (BTK-GFP) [%] | GI50 (TMD8 cells; Homo sapiens) [nM] | GI50 (OCI-LY3 cells) [nM] | GI50 (TMD8 cells) [nM]
Cc1ccc(C(=O)N2CCC(OC3CCN(Cc4ccc(-c5cc6c(-c7cc(F)cc(NC(=O)c8ccc(C(C)(C)O)cc8F)c7C)ncnc6[nH]5)cc4)CC3)CC2)cc1N1CCC(=O)NC1=O [Compound 50, N-(3-(6-(4-((4-((1-(3-(2,4-dioxotetrahydropyrimidin-1(2H)-yl)-4-methylbenzoyl)piperidin-4-yl)oxy)piperidin-1-yl)methyl)phenyl)-7H-pyrrolo[2,3-d]pyrimidin-4-yl)-5-fluoro-2-methylphenyl)-2-fluoro-4-(2-hydroxypropan-2-yl)benzamide] | 7770 | 1.2 | 4.1 | 0.66 |  | 
COc1ccc(C(=O)N2CCC(OCCN3CCC(Oc4ccc(-c5cc6c(-c7cc(F)cc(NC(=O)c8ccc(C(C)(C)O)cc8F)c7C)ncnc6[nH]5)cc4)CC3)CC2)cc1N1CCC(=O)NC1=O [Compound 58, N-(3-(6-(4-((1-(2-((1-(3-(2,4-dioxotetrahydropyrimidin-1(2H)-yl)-4-methoxybenzoyl)piperidin-4-yl)oxy)ethyl)piperidin-4-yl)oxy)phenyl)-7H-pyrrolo[2,3-d]pyrimidin-4-yl)-5-fluoro-2-methylphenyl)-2-fluoro-4-(2-hydroxypropan-2-yl)benzamide] | 4920 | 0.9 | 1.8 | 0.56 |  | 
COc1ccc(C(=O)N2CCC(O[C@H]3CC[C@@H](OCc4ccc(-c5cc6c(-c7cc(F)cc(NC(=O)c8ccc(C(C)(C)O)cc8F)c7C)ncnc6[nH]5)cc4)CC3)CC2)cc1N1CCC(=O)NC1=O [Compound 41, N-(3-(6-(4-((((1s,4s)-4-((1-(3-(2,4-dioxotetrahydropyrimidin-1(2H)-yl)-4-methoxybenzoyl)piperidin-4-yl)oxy)cyclohexyl)oxy)methyl)phenyl)-7H-pyrrolo[2,3-d]pyrimidin-4-yl)-5-fluoro-2-methylphenyl)-2-fluoro-4-(2-hydroxypropan-2-yl)benzamide] |  | 12.4 | 4.4 |  | > 10000 | 17.5
COc1ccc(C(=O)N2CCC(CCN3CCC(COc4ccc(-c5cc6c(-c7cc(F)cc(NC(=O)c8ccc(C(C)(C)O)cc8F)c7C)ncnc6[nH]5)cc4)CC3)CC2)cc1N1CCC(=O)NC1=O [Compound 43, N-(3-(6-(4-((1-(2-(1-(3-(2,4-dioxotetrahydropyrimidin-1(2H)-yl)-4-methoxybenzoyl)piperidin-4-yl)ethyl)piperidin-4-yl)methoxy)phenyl)-7H-pyrrolo[2,3-d]pyrimidin-4-yl)-5-fluoro-2-methylphenyl)-2-fluoro-4-(2-hydroxypropan-2-yl)benzamide] | 3340 | 1 | 2.3 | 0.68 |  | 
COc1ccc(C(=O)N2CCN(CCNCCCCOc3ccc(-c4cc5c(-c6cc(F)cc(NC(=O)c7ccc(C(C)(C)O)cc7F)c6C)ncnc5[nH]4)cc3)CC2)cc1N1CCC(=O)NC1=O [Compound 36, N-(3-(6-(4-(4-((2-(4-(3-(2,4-dioxotetrahydropyrimidin-1(2H)-yl)-4-methoxybenzoyl)piperazin-1-yl)ethyl)amino)butoxyl)phenyl)-7H-pyrrolo[2,3-d]pyrimidin-4-yl)-5-fluoro-2-methylphenyl)-2-fluoro-4-(2-hydroxypropan-2-yl)benzamide] | > 10000 | 37 | 2.4 | 2.94 |  | 
COc1ccc(C(=O)N2CCC(CCCN3CCC(Oc4ccc(-c5cc6c(-c7cc(F)cc(NC(=O)c8ccc(C(C)(C)O)cc8F)c7C)ncnc6[nH]5)cc4)CC3)CC2)cc1N1CCC(=O)NC1=O [Compound 15, N-(3-(6-(4-((1-(3-(1-(3-(2,4-Dioxotetrahydropyrimidin-1(2H)-yl)-4-methoxybenzoyl)piperidin-4-yl)propyl)piperidin-4-yl)oxyl)phenyl)-7H-pyrrolo[2,3-d]pyrimidin-4-yl)-5-fluoro-2-methylphenyl)-2-fluoro-4-(2-hydroxypropan-2-yl)benzamide] | 3380 | 0.4 | 1.6 | 0.56 |  | 
COc1ccc(C(=O)N2CCC(O[C@H]3CC[C@H](OCc4ccc(-c5cc6c(-c7cc(F)cc(NC(=O)c8ccc(C(C)(C)O)cc8F)c7C)ncnc6[nH]5)cc4)CC3)CC2)cc1N1CCC(=O)NC1=O [Compound 56, N-(3-(6-(4-((((1r,4r)-4-((1-(3-(2,4-dioxotetrahydropyrimidin-1(2H)-yl)-4-methoxybenzoyl)piperidin-4-yl)oxy)cyclohexyl)oxy)methyl)phenyl)-7H-pyrrolo[2,3-d]pyrimidin-4-yl)-5-fluoro-2-methylphenyl)-2-fluoro-4-(2-hydroxypropan-2-yl)benzamide] |  | 4 | 4.4 |  | 6340 | 15.4
COc1ccc(C(=O)N2CCN(CCN3CCC(COc4ccc(-c5cc6c(-c7cc(F)cc(NC(=O)c8ccc(C(C)(C)O)cc8F)c7C)ncnc6[nH]5)cc4)CC3)CC2)cc1N1CCC(=O)NC1=O [Compound 51, N-(3-(6-(4-((1-(2-(4-(3-(2,4-dioxotetrahydropyrimidin-1(2H)-yl)-4-methoxybenzoyl)piperazin-1-yl)ethyl)piperidin-4-yl)methoxy)phenyl)-7H-pyrrolo[2,3-d]pyrimidin-4-yl)-5-fluoro-2-methylphenyl)-2-fluoro-4-(2-hydroxypropan-2-yl)benzamide] | 4370 | 0.8 | 3.9 | 0.58 |  | 

The next lines start with results.

GI50 (OCI-LY3 cells; Homo sapiens) [nM] | DC50 (BTK-GFP) [nM] | BTK deg Amax (BTK-GFP) [%] | SMILES | GI50 (TMD8 cells; Homo sapiens) [nM] | GI50 (OCI-LY3 cells) [nM] | GI50 (TMD8 cells) [nM]
> 10000 | 4.2 | 4.1 | COc1ccc(C(=O)N2CCN(CCN3CCN(Cc4ccc(-c5cc6c(-c7cc(F)cc(NC(=O)c8ccc(C(C)(C)O)cc8F)c7C)ncnc6[nH]5)cc4)CC3)CC2)cc1N1CCC(=O)NC1=O [Compound 16, N-(3-(6-(4-((4-(2-(4-(3-(2,4-Dioxotetrahydropyrimidin-1(2H)-yl)-4-methoxybenzoyl)piperazin-1-yl)ethyl)piperazin-1-yl)methyl)phenyl)-7H-pyrrolo[2,3-d]pyrimidin-4-yl)-5-fluoro-2-methylphenyl)-2-fluoro-4-(2-hydroxypropan-2-yl)benzamide] | 0.67 |  | 
4760 | 25 | 4.3 | COc1ccc(C(=O)NCCCCN2CCN(Cc3ccc(-c4cc5c(-c6cc(F)cc(NC(=O)c7ccc(C(C)(C)O)cc7F)c6C)ncnc5[nH]4)cc3)CC2)cc1N1CCC(=O)NC1=O [Compound 26, N-(3-(6-(4-((4-(4-(3-(2,4-Dioxotetrahydropyrimidin-1(2H)-yl)-4-methoxybenzamido)butyl)piperazin-1-yl)methyl)phenyl)-7H-pyrrolo[2,3-d]pyrimidin-4-yl)-5-fluoro-2-methylphenyl)-2-fluoro-4-(2-hydroxypropan-2-yl)benzamide] | 1.92 |  | 
4840 | 70.3 | 49.4 | COc1ccc(C(=O)N2CCC3(CCN(Cc4ccc(-c5cc6c(-c7cc(F)cc(NC(=O)c8ccc(C(C)(C)O)cc8F)c7C)ncnc6[nH]5)cc4)C3)CC2)cc1N1CCC(=O)NC1=O [Compound 49, N-(3-(6-(4-((8-(3-(2,4-dioxotetrahydropyrimidin-1(2H)-yl)-4-methoxybenzoyl)-2,8-diazaspiro[4.5]decan-2-yl)methyl)phenyl)-7H-pyrrolo[2,3-d]pyrimidin-4-yl)-5-fluoro-2-methylphenyl)-2-fluoro-4-(2-hydroxypropan-2-yl)benzamide] | 5.35 |  | 
> 10000 | 46.8 | 10.4 | COc1ccc(C(=O)N2CCC3(CCN(Cc4ccc(-c5cc6c(-c7cc(F)cc(NC(=O)c8ccc(C(C)(C)O)cc8F)c7C)ncnc6[nH]5)cc4)CC3CO)CC2)cc1N1CCC(=O)NC1=O (racemic) [Compound 23, rac-N-(3-(6-(4-((9-(3-(2,4-Dioxotetrahydropyrimidin-1(2H)-yl)-4-methoxybenzoyl)-1 (hydroxymethyl)-3,9-diazaspiro[5.5]undecan-3-yl)methyl)phenyl)-7H-pyrrolo[2,3-d]pyrimidin-4-yl)-5-fluoro-2-methylphenyl)-2-fluoro-4-(2-hydroxypropan-2-yl)benzamide] | 5.35 |  | 
6120 | 0.7 | 3.3 | COc1ccc(C(=O)N2CCC(CN3CCN(Cc4ccc(-c5cc6c(-c7cc(F)cc(NC(=O)c8ccc(C(C)(C)O)cc8F)c7C)ncnc6[nH]5)cc4)CC3)CC2)cc1N1CCC(=O)NC1=O [Compound 7, N-(3-(6-(4-((4-((1-(3-(2,4-Dioxotetrahydropyrimidin-1(2H)-yl)-4-methoxybenzoyl)piperidin-4-yl)methyl)piperazin-1-yl)methyl)phenyl)-7H-pyrrolo[2,3-d]pyrimidin-4-yl)-5-fluoro-2-methylphenyl)-2-fluoro-4-(2-hydroxypropan-2-yl)benzamide] | 0.39 |  | 
